The values below come from patent US20070185149A1, “Novel amido-substituted hydroxy-6-phenylphenanthridines and their use as pde4 inhibtors” (ALTANA PHARMA AG, priority 2004, published 2007).

For the assay, the target named is T1, PDE4B2 (Homo sapiens, UniProt Q07343).
T1 construct: made in house; host or cells: SF21 insect cells (baculovirus; virus prepared in SF9 cells)
Briefly: Inhibition of PDE4 activity: PDE4B2 [3H]cAMP SPA enzyme assay. Format: biochemical. The settings on record: recombinant PDE4B2 (SF21 cell supernatant), modified SPA test, 0.5 μM cAMP, 15 min at 37° C.; read-out: Inhibition of the PDE4 activity, −log IC50 (converted). The method, then: The PDE4B2 (GB no. M97515) was a gift of Prof. M. Conti (Stanford University, USA). It was amplified from the original plasmid (pCMV5) via PCR with primers Rb9 (5′-[…]-3′) and Rb10 (5′-[…]-3′) and cloned into the pCR-Bac vector (Invitrogen, Groningen, NL).
The recombinant baculovirus was prepared by means of homologous recombination in SF9 insect cells.
The expression plasmid was cotransfected with Bac-N-Blue (Invitrogen, Groningen, NL) or Baculo-Gold DNA (Pharmingen, Hamburg) using a standard protocol (Pharmingen, Hamburg). Wt virus-free recombinant virus supernatant was selected using plaque assay methods. After that, high-titre virus supernatant was prepared by amplifying 3 times. PDE was expressed in SF21 cells by infecting 2×10^6 cells/ml with an MOI (multiplicity of infection) between 1 and 10 in serum-free SF900 medium (Life Technologies, Paisley, UK). The cells were cultured at 28° C. for 48-72 hours, after which they were pelleted for 5-10 min at 1000 g and 4° C.
The SF21 insect cells were resuspended, at a concentration of approx. 10^7 cells/ml, in ice-cold (4° C.) homogenization buffer (20 mM Tris, pH 8.2, containing the following additions: 140 mM NaCl, 3.8 mM KCl, 1 mM EGTA, 1 mM MgCl2, 10 mM β-mercaptoethanol, 2 mM benzamidine, 0.4 mM Pefablock, 10 μM leupeptin, 10 μM pepstatin A, 5 μM trypsin inhibitor) and disrupted by ultrasonication. The homogenate was then centrifuged for 10 min at 1000×g and the supernatant was stored at −80° C. until subsequent use (see below). The protein content was determined by the Bradford method (BioRad, Munich) using BSA as the standard.
PDE4B2 activity is inhibited by the said compounds in a modified SPA (scintillation proximity assay) test, supplied by Amersham Biosciences (see procedural instructions “phosphodiesterase [3H]cAMP SPA enzyme assay, code TRKQ 7090”), carried out in 96-well microtitre plates (MTP's). The test volume is 100 μl and contains 20 mM Tris buffer (pH 7.4), 0.1 mg of BSA (bovine serum albumin)/ml, 5 mM Mg^2+, 0.5 μM cAMP (including about 50,000 cpm of [3H]cAMP), 1 μl of the respective substance dilution in DMSO and sufficient recombinant PDE (1000×g supernatant, see above) to ensure that 10-20% of the cAMP is converted under the said experimental conditions. […] After a preincubation of 5 min at 37° C., the reaction is started by adding the substrate (cAMP) and the assay is incubated for a further 15 min; after that, it is stopped by adding SPA beads (50 μl). In accordance with the manufacturer's instructions, the SPA beads had previously been resuspended in water, but were then diluted 1:3 (v/v) in water; the diluted solution also contains 3 mM IBMX to ensure a complete PDE activity stop. After the beads have been sedimented (>30 min), the MTP's are analyzed in commercially available […]. The corresponding IC50 values of the compounds for the inhibition of PDE activity are determined from the concentration-effect curves by means of non-linear regression.

T1 sequence (Q07343 1-564 isoform Q07343-2): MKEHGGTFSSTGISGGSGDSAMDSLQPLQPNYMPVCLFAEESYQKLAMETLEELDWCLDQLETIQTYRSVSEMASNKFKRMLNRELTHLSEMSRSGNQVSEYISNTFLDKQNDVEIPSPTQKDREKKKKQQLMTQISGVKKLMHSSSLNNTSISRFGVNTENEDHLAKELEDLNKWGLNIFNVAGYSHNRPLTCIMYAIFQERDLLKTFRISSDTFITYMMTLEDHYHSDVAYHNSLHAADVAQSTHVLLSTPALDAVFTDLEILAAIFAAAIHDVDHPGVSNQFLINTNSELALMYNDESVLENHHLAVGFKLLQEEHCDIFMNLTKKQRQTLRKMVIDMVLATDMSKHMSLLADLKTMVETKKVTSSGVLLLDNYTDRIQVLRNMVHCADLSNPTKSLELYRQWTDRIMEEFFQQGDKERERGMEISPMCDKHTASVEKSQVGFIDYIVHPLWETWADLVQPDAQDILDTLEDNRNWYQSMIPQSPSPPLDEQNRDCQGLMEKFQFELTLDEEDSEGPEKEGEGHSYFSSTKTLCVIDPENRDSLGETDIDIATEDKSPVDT

For `COc1cc2c(cc1OC)[C@H]1C[C@H](O)CC[C@H]1N=C2c1ccc(C(=O)NN2CCN(C)CC2)cc1` (racemic) [Compound 3, 4-((2RS,4aRS,10bRS)-2-Hydroxy-8,9-dimethoxy-1,2,3,4,4a,10b-hexahydro-phenanthridin-6-yl)-N-(4-methyl-piperazin-1-yl)benzamide], the IC50 (usually the concentration that inhibits the measured activity by half) is 0.955 to 8.71 nM.
In the case of `COc1cc2c(cc1OC)[C@H]1C[C@H](O)CC[C@H]1N=C2c1ccc(C(=O)Nc2cnc3ccccc3c2)cc1` (racemic) [Compound 6, 4-((2RS,4aRS,10bRS)-2-Hydroxy-8,9-dimethoxy-1,2,3,4,4a,10b-hexahydro-phenanthridin-6-yl)-N-quinolin-3-yl-benzamide], the IC50 was 0.955 to 8.71 nM.
Turning to `COc1cc2c(cc1OC)[C@H]1C[C@H](O)CC[C@H]1N=C2c1ccc(C(=O)NCCc2ccccn2)cc1` (racemic) [Compound 7, 4-((2RS,4aRS,10bRS)-2-Hydroxy-8,9-dimethoxy-1,2,3,4,4a,10b-hexahydro-phenanthridin-6-yl)-N-(2-pyridin-2-yl-ethyl)-benzamide], the IC50 was 0.955 to 8.71 nM.
Regarding `COc1cc2c(cc1OC)[C@H]1C[C@H](O)CC[C@H]1N=C2c1ccc(C(=O)N2CCN(CCN3CCOCC3)CC2)cc1` (racemic) [Compound 9, 1-[4-((2RS,4aRS,10bRS)-2-Hydroxy-8,9-dimethoxy-1,2,3,4,4a,10b-hexahydro-phenanthridin-6-yl)-phenyl]-1-[4-(2-morpholin-4-yl-ethyl)-piperazin-1-yl]methanone], the IC50 was 0.955 to 8.71 nM.
As to `COc1cc2c(cc1OC)[C@H]1C[C@H](O)CC[C@H]1N=C2c1ccc(C(=O)NC2CC2)cc1` (racemic) [Compound 11, N-Cyclopropyl-4-((2RS,4aRS,10bRS)-2-hydroxy-8,9-dimethoxy-1,2,3,4,4a,10b-hexahydro-phenanthridin-6-yl)-benzamide], the IC50 was 0.955 to 8.71 nM.
As for `COc1cc2c(cc1OC)[C@H]1C[C@H](O)CC[C@H]1N=C2c1ccc(C(=O)N2CCN(CC(=O)N3CCCC3)CC2)cc1` (racemic) [Compound 12, 2-(4-{1-[4-((2RS,4aRS,10bRS)-2-Hydroxy-8,9-dimethoxy-1,2,3,4,4a,10b-hexahydro-phenanthridin-6-yl)-phenyl]-methanoyl}-piperazin-1-yl)-1-pyrrolidin-1-yl-ethanone], the figure is 0.955 to 8.71 nM; as for `COc1cc2c(cc1OC)[C@H]1C[C@H](O)CC[C@H]1N=C2c1ccc(C(=O)N2CCN(CC(=O)Nc3cccnc3)CC2)cc1` (racemic) [Compound 13, 2-(4-{1-[4-((2RS,4aRS,10bRS)-2-Hydroxy-8,9-dimethoxy-1,2,3,4,4a,10b-hexahydro-phenanthridin-6-yl)phenyl]methanoyl}-piperazin-1-yl)-N-pyridin-3-yl-acetamide], 0.955 to 8.71 nM.
Regarding `COc1cc2c(cc1OC)[C@H]1C[C@H](O)CC[C@H]1N=C2c1ccc(C(=O)N(C)C)cc1` (racemic) [Compound 14, 4-((2RS,4aRS,10bRS)-2-Hydroxy-8,9-dimethoxy-1,2,3,4,4a,10b-hexahydro-phenanthridin-6-yl)-N,N-dimethyl-benzamide], the concentration for half-maximal inhibition (IC50) was 0.955 to 8.71 nM.
On to `COc1cc2c(cc1OC)[C@H]1C[C@H](O)CC[C@H]1N=C2c1ccc(C(=O)N2CCN(CC(=O)Nc3ccccn3)CC2)cc1` (racemic) [Compound 15, 2-(4-{1-[4-((2RS,4aRS,10bRS)-2-Hydroxy-8,9-dimethoxy-1,2,3,4,4a,10b-hexahydro-phenanthridin-6-yl)-phenyl]-methanoyl}-piperazin-1-yl)-N-pyridin-2-yl-acetamide], for which the IC50 is 0.955 to 8.71 nM.
As for `COc1cc2c(cc1OC)[C@H]1C[C@H](O)CC[C@H]1N=C2c1ccc(C(=O)N2CCN(CC(=O)N3CCOCC3)CC2)cc1` (racemic) [Compound 17, 2-(4-{1-[4-((2RS,4aRS,10bRS)-2-Hydroxy-8,9-dimethoxy-1,2,3,4,4a,10b-hexahydro-phenanthridin-6-yl)-phenyl]-methanoyl}-piperazin-1-yl)-1-morpholin-4-yl-ethanone], the IC50 is 0.955 to 8.71 nM.
Turning to `COc1cc2c(cc1OC)[C@H]1C[C@H](O)CC[C@H]1N=C2c1ccc(C(=O)N2CCOCC2)cc1` (racemic) [Compound 19, 1-[4-((2RS,4aRS,10bRS)-2-Hydroxy-8,9-dimethoxy-1,2,3,4,4a,10b-hexahydro-phenanthridin-6-yl)-phenyl]-1-morpholin-4-yl-methanone], the IC50 was 0.955 to 8.71 nM.
For `COc1cc2c(cc1OC)[C@H]1C[C@H](O)CC[C@H]1N=C2c1ccc(C(=O)NCCc2ccncc2)cc1` (racemic) [Compound 20, 4-((2RS,4aRS,10bRS)-2-Hydroxy-8,9-dimethoxy-1,2,3,4,4a,10b-hexahydro-phenanthridin-6-yl)-N-(2-pyridin-4-yl-ethyl)-benzamide], the IC50 is 0.955 to 8.71 nM.
As for `COc1cc2c(cc1OC)[C@H]1C[C@H](O)CC[C@H]1N=C2c1ccc(C(=O)NCCc2cccnc2)cc1` (racemic) [Compound 21, 4-((2RS,4aRS,10bRS)-2-Hydroxy-8,9-dimethoxy-1,2,3,4,4a,10b-hexahydro-phenanthridin-6-yl)-N-(2-pyridin-3-yl-ethyl)-benzamide], the IC50 is 0.955 to 8.71 nM.
Turning to `COc1cc2c(cc1OC)[C@H]1C[C@H](O)CC[C@H]1N=C2c1ccc(C(=O)NNC(=O)N2CCOCC2)cc1` (racemic) [Compound 22, 4-((2RS,4aRS,10bRS)-2-Hydroxy-8,9-dimethoxy-1,2,3,4,4a,10b-hexahydro-phenanthridin-6-yl)benzoic acid N′-(1-morpholin-4-yl-methanoyl)-hydrazide], the IC50 was 0.955 to 8.71 nM.
As to `COc1ccc(NC(=O)c2ccc(C3=N[C@@H]4CC[C@@H](O)C[C@@H]4c4cc(OC)c(OC)cc43)cc2)c(OC)n1` (racemic) [Compound 23, N-(2,6-Dimethoxy-pyridin-3-yl)-4-((2RS,4aRS,10bRS)-2-hydroxy-8,9-dimethoxy-1,2,3,4,4a,10b-hexahydro-phenanthridin-6-yl)benzamide], the IC50 is 0.955 to 8.71 nM.
For the molecule `COc1cc2c(cc1OC(F)F)[C@H]1C[C@H](O)CC[C@H]1N=C2c1ccc(C(=O)N(C)C)cc1` (racemic) [Compound 24, 4-[(2RS,4aRS,10bRS)-9-(1,1-Difluoro-methoxy)-2-hydroxy-8-methoxy-1,2,3,4,4a,10b-hexahydro-phenanthridin-6-yl]-N,N-dimethyl-benzamide], the IC50 was 0.955 to 8.71 nM.
For `COc1cc2c(cc1OC(F)F)[C@H]1C[C@H](O)CC[C@H]1N=C2c1ccc(C(=O)NC2CC2)cc1` (racemic) [Compound 25, N-Cyclopropyl-4-[(2RS,4aRS,10bRS)-9-(1,1-difluoro-methoxy)-2-hydroxy8-methoxy-1,2,3,4,4a,10b-hexahydro-phenanthridin-6-yl]-benzamide], the IC50 was 0.955 to 8.71 nM.
For the molecule `COCCN(CCOC)C(=O)c1ccc(C2=N[C@@H]3CC[C@@H](O)C[C@@H]3c3cc(OC(F)F)c(OC)cc32)cc1` (racemic) [Compound 26, 4-[(2RS,4aRS,10bRS)-9-(1,1-Difluoro-methoxy)-2-hydroxy-8-methoxy-1,2,3,4,4a,10b-hexahydro-phenanthridin-6-yl]-N,N-bis(2-methoxy-ethyl)-benzamide], the IC50 was 0.955 to 8.71 nM.
Consider `COc1cc2c(cc1OC(F)F)[C@H]1C[C@H](O)CC[C@H]1N=C2c1ccc(C(=O)NCCN2CCOCC2)cc1` (racemic) [Compound 27, 4-[(2RS,4aRS,10bRS)-9-(1,1-Difluoro-methoxy)-2-hydroxy-8-methoxy-1,2,3,4,4a,10b-hexahydro-phenanthridin-6-yl]-N-(2-morpholin-4-yl-ethyl)-benzamide], for which the half-maximal inhibitory concentration (IC50) is 0.955 to 8.71 nM.
On to `COc1cc2c(cc1OC(F)F)[C@H]1C[C@H](O)CC[C@H]1N=C2c1ccc(C(=O)NCCCN2CCOCC2)cc1` (racemic) [Compound 28, 4-[(2RS,4aRS,10bRS)-9-(1,1-Difluoro-methoxy)-2-hydroxy-8-methoxy-1,2,3,4,4a,10b-hexahydro-phenanthridin-6-yl]-N-(3-morpholin-4-yl-propyl)-benzamide], for which the IC50 was 0.955 to 8.71 nM.
